Values of other authors, collected in publication PMC8313041 (Heterocyclic communications, 2015).

Experiments:
[1] = test system: human leukemic T-cell lines

For Nc1ncnc2c1ncn2[C@@H]1O[C@H](CO)[C@@H](F)[C@@H]1F [Compound 2, 9-(2′,3′-dideoxy-2′,3′-difluoro-β-D-arabinofuranosyl)adenine], the “in vitro potency against HIV-1 compared with lodenosine” value (HIV-1) is listed as “more potent in vitro against HIV-1 than lodenosine 1”.
In the case of Nc1nc2c(ncn2[C@@H]2O[C@H](CO)[C@@H](O)[C@@H]2F)c(=O)[nH]1 [Compound 3, 9-(2′-deoxy-2′-fluoro-β-D-arabinofuranosyl)guanine], the “activity against human leukemic T-cell lines” value [1] is listed as “displays activity against human leukemic T-cell lines”.
For Nc1ncnc2c1ncn2[C@@H]1O[C@H](CO)C[C@@H]1F [lodenosine, 2′-β-fluoro-2′,3′-dideoxyadenosine], the “in vitro activity against HIV-1” value (HIV-1) is listed as “displays in vitro activity against HIV-1”.
